The values below are quoted from earlier work in PMC13366575, “Structure−Activity Relationships among Inhibitors of Acinetobacter baumannii and Klebsiella pneumoniae 1-Deoxy-D-xylulose 5-Phosphate Reductoisomerase (DXR/IspC) − A Promising Target for Antibiotic Development” (ACS Infectious Diseases, 2026).

Molecules are shown by their SMILES.

The data set addresses KpIspC (Klebsiella pneumoniae, UniProt A6T4X5).

KpIspC, sequence (A6T4X5 entry or part of it): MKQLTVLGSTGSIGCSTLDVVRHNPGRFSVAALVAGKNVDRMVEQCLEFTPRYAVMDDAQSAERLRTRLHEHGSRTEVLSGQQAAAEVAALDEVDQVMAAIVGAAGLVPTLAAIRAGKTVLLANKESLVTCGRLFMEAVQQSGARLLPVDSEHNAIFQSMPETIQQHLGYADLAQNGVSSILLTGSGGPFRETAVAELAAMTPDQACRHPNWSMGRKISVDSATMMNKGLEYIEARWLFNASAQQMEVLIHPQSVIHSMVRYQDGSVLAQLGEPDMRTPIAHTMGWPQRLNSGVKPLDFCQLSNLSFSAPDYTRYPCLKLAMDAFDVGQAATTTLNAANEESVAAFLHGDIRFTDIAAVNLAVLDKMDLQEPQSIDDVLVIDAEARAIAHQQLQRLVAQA

On to `O=CN(O)CCCP(=O)(O)O` [Compound 1a, Fosmidomycin], for which the IC50 – broadly, the concentration that gives 50% inhibition – is 20 nM.
